# According to US8367720B2 (Panorama Research Inc., priority 2007, dated 2013):
# Counter-ions that a name gives are not always drawn. Like-named read-outs stand apart in the source and are kept apart here.
# Experiments:
# [1] = test system: Bacillus subtilis; assay: Inhibition zone test (holing method); type: cell-based; conditions: 37° C., 24 h; compounds 0.05 mg/well, streptomycin 0.15 mg/well
# Description: (§1) After being cultured at 37° C. for 24 h, the sizes of inhibition zones were measured.
# [2] = test system: Staphylococcus aureus wild type; assay: Inhibition zone test (holing method); type: cell-based; conditions: 37° C., 24 h; compounds 0.05 mg/well, streptomycin 0.15 mg/well
# Description: as §1
# [3] = test system: L1210 leukemia cells; assay: In vitro antitumor activity to L1210 leukemia cells (MTT); type: cell-based
# Description: The cells were cultured in an incubator at 37° C., 5% CO2 and saturated humidity for 48 h. Then 5 mg/mL MTT (20 μL/well) was added and cultured at the same conditions for 4 h, DMSO (150 μL/well) was added, and the (570/630 nm) absorbance (A values) was measured by using micro-plate reader.
# [4] = test system: L1210 cells; type: cell-based
# Description: The cells were cultured in an incubator at 37° C., 5% CO2 and saturated humidity. The culture medium was removed, the cells were washed with PBS twice, fixed at −20° C. overnight. Then the cells were centrifuged again, washed with PBS to remove ethanol, cultured with RNase A (200 μg/mL, Sigma) at 37° C. for 1 h, stained with PI (50 μg/mL, Sigma) in dark for 30 min, and detected by using a flow cytometer.
# [5] = test system: Candida albicans; assay: Inhibition zone test (holing method); type: cell-based; conditions: 37° C., 24 h; compounds 0.05 mg/well, nysfungin 0.10 mg/well
# Description: as §1
# [6] = test system: E. coli; assay: Inhibition zone test (holing method); type: cell-based; conditions: 37° C., 24 h; compounds 0.05 mg/well, gentamicin 0.10 mg/well
# Description: as §1
# [7] = test system: Pseudomonas aeruginosa; assay: Inhibition zone test (holing method); type: cell-based; conditions: 37° C., 24 h; compounds 0.05 mg/well, gentamicin 0.10 mg/well
# Description: as §1
# [8] = test system: Staphylococcus aureus MRSA 5676; assay: Inhibition zone test (holing method); type: cell-based; conditions: 37° C., 24 h; compounds 0.05 mg/well, vancomycin 0.15 mg/well
# Description: as §1
# [9] = test system: Staphylococcus aureus MRSA 5677; assay: Inhibition zone test (holing method); type: cell-based; conditions: 37° C., 24 h; compounds 0.05 mg/well, vancomycin 0.15 mg/well
# Description: as §1
# [10] = test system: Staphylococcus aureus wild type; assay: Test of minimal inhibitory concentration (MIC); type: cell-based; conditions: two-fold dilution, 37° C., 24 h, absorbance 595 nm
# [11] = test system: MRSA5676; assay: Test of minimal inhibitory concentration (MIC); type: cell-based, Staphylococcus aureus; conditions: two-fold dilution, 37° C., 24 h, absorbance 595 nm
# [12] = test system: MRSA5677; assay: Test of minimal inhibitory concentration (MIC); type: cell-based, Staphylococcus aureus; conditions: two-fold dilution, 37° C., 24 h, absorbance 595 nm
# [13] = test system: secretion of pyocyanin by Pseudomonas aeruginosa; assay: Measurement of pyocyanin; type: cell-based; conditions: 18 h culture, A520; Andro, AL-1 1 mM; Chuanhuning, Yanhuning, Lianbizhi 10 mM (FIG. 3)
# Description: Pseudomonas aeruginosa was inoculated in LB medium, then cultured at a constant temperature of 37° C. in a shaker overnight. […] The supernatant was taken and extracted in turn with chloroform and 0.2 N HCl, and A520 values were measured (Zielinshi et al., Biol. Chem. 1991, 266, 9754-9763; May et al., Clin. Microbiology Rev. 1991, 4, 191-206).
# [14] = test system: extracellular protease of Pseudomonas aeruginosa; assay: Measurement of extracellular protease; type: cell-based; conditions: azo-casein, A440; Andro, AL-1 1 mM; Chuanhuning, Yanhuning, Lianbizhi 10 mM (FIG. 4)
# Description: Pseudomonas aeruginosa was inoculated in LB liquid, and cultured at a constant temperature of 37° C. in a shaker overnight. […] After the bacterial liquids were cultured simultaneously at 37° C. for 6 h and centrifuged, supernatant 100 μL was taken, azo-casein 5 mg was added, […] and CaCl2 10 mM were added, and then they were shaken for reaction at 37° C. for 6 h, and the reaction was terminated by adding EDTA-Na. The A440 values of the supernatants were measured (Zielinshi et al., Biol. Chem. 1991, 266, 9754-9763; May et al., Clin. Microbiology Rev. 1991, 4, 191-206).
# [15] = test system: suspended Pseudomonas aeruginosa; assay: Experiment of combination with antibiotics; type: cell-based; conditions: Pseudomonas aeruginosa cultured 15 h, OD600; ciprofloxacin 0.017 μg/mL, erythromycin 3.75 μg/mL, Andro 350 μg/mL, AL-1 538 μg/mL (1 μmol/mL)
# [16] = test system: Pseudomonas aeruginosa; assay: Measurement of growth curve of Pseudomonas aeruginosa; type: cell-based; conditions: 10 mM according to FIG. 2 legend
# Description: Pseudomonas aeruginosa was inoculated in LB medium, and cultured at a constant temperature of 37° C. in a shaker overnight.
# [17] = test system: glutathione; conditions: after injection to animals; especially lung, liver and kidney cells; cited from earlier work
# [18] = test system: NF-kappaB; conditions: 0.5 mmol/L, HAEC pretreated 48 h, TNF-α 10 U/ml; cited from earlier work
# [19] = test system: rats with STZ-induced diabetes mellitus; assay: Therapeutical effects on STZ-induced diabetes mellitus in rats; conditions: Day 0, before treatment
# Description: 30 Female SD rats, 180-220 g, fasted for 16 h, were subjected to intraperitoneal injection of 60 mg/kg of STZ (purchased from Sigma Company). After 72 h, blood samples were collected from the rats by cutting their tails after fasting 16 h, and blood glucose values were measured by using a blood glucose analyzer (Johnson & Johnson Company). […] Animals were weighed, orbital bleeded, and the sera were separated. According to the instructions of kit (Zhejiang Dongou Biotechnology Co., Ltd.), the contents of triglyceride and total cholesterol were measured. […] The rats of vehicle group were treated with an equivalent volume of solvent (20% DMSO in H2O). After being fasted for 16 h, the rats were weighed, and bleeded for the measurement of blood glucose, triglyceride and total cholesterol. The obtained data were processed by using one-factor analysis of variance (One-way ANOVA) followed by Student's t-test.
# [20] = L1210 cells, 48 h, MTT, read-out: IC50
Molecule,"Inhibition zone diameter, Bacillus Subtilis [1]","Inhibition zone diameter, Staphylococcus aureus Wild type [2]","Inhibition zone diameter, Candida albicans [5]","Inhibition zone diameter, E. coli [6]","Inhibition zone diameter, Pseudomonas aeruginosa [7]","Inhibition zone diameter, Staphylococcus aureus MRSA 5676 [8]","Inhibition zone diameter, Staphylococcus aureus MRSA 5677 [9]",also measured
[H]/N=C(/N)N[C@H]1[C@H](O)[C@@H](O)[C@H](O[C@@H]2O[C@@H](C)[C@](O)(C=O)[C@H]2O[C@@H]2O[C@@H](CO)[C@H](O)[C@@H](O)[C@@H]2NC)[C@@H](N/C(N)=N\[H])[C@@H]1O [Streptomycin],22.1 ± 1.00 mm,21.2 ± 1.00 mm,,,,,,
"C=C1CCC2[C@](C)(CO)[C@H](O)CC[C@@]2(C)[C@@H]1C/C=C1/C(=O)OCC1OC(=O)/C=C/c1ccc([N+](=O)[O-])cc1 (some centres unmarked) [ANO, 14-[4′-nitrocinnamyl]-3,19-dihydroxy-andrographolide]",^b (incompetence (inhibition zone diameter <4 mm)),8.3 ± 0.99 mm,^b (incompetence (inhibition zone diameter <4 mm)),^b (incompetence (inhibition zone diameter <4 mm)),^b (incompetence (inhibition zone diameter <4 mm)),8.1 ± 0.64 mm,6.4 ± 0.42 mm,"IC50 ([3]; Mus musculus, L1210 cells, 48 h, MTT, read-out: IC50): 9.96 ± 2.25 µM; effect on cell cycle / apoptosis of L1210 cells ([4]; 10 μM, after 12 h): arrest L1210 cells at G1 prophase; MIC, Wild type [10]: 62.5; MIC, MRSA5676 [11]: 62.5; MIC, MRSA5677 [12]: 25; inhibition of the secretion of pyocyanin [13]: AL-1>Andro>ANO; inhibition of the production/activity of extracellular protease [14]: AL-1>ANO>Andro"
CC[C@H]1OC(=O)[C@H](C)[C@@H](O[C@H]2C[C@@](C)(OC)[C@@H](O)[C@H](C)O2)[C@H](C)[C@@H](O[C@@H]2O[C@H](C)C[C@H](N(C)C)[C@H]2O)[C@](C)(O)C[C@@H](C)C(=O)[C@H](C)[C@@H](O)[C@]1(C)O [Erythromycin],,,,,,,,Survival Rate [15]: 93.9%
CN[C@H](CC(C)C)C(=O)N[C@H]1C(=O)N[C@@H](CC(N)=O)C(=O)N[C@H]2C(=O)N[C@H]3C(=O)N[C@H](C(=O)N[C@H](C(=O)O)c4cc(O)cc(O)c4-c4cc3ccc4O)[C@H](O)c3ccc(c(Cl)c3)Oc3cc2cc(c3O[C@@H]2O[C@H](CO)[C@@H](O)[C@H](O)[C@H]2O[C@H]2C[C@](C)(N)[C@H](O)[C@H](C)O2)Oc2ccc(cc2Cl)[C@H]1O [Vancomycin],,,,,,20.0 ± 1.00 mm,21.0 ± 1.00 mm,"MIC, Wild type [10]: 1.56; MIC, MRSA5676 [11]: 1.56; MIC, MRSA5677 [12]: 3.13"
potassium sodium dehydroandrographolide succinate [Yanhuning],^b (incompetence (inhibition zone diameter <4 mm)),^b (incompetence (inhibition zone diameter <4 mm)),^b (incompetence (inhibition zone diameter <4 mm)),^b (incompetence (inhibition zone diameter <4 mm)),^b (incompetence (inhibition zone diameter <4 mm)),^b (incompetence (inhibition zone diameter <4 mm)),^b (incompetence (inhibition zone diameter <4 mm)),"IC50 [3, 20]: > 100 µM; inhibition of the growth of Pseudomonas aeruginosa (growth curve, A600) [16]: no direct inhibition effect"
potassium dehydroandrograpolide succinate [Chuanhuning],^b (incompetence (inhibition zone diameter <4 mm)),^b (incompetence (inhibition zone diameter <4 mm)),^b (incompetence (inhibition zone diameter <4 mm)),^b (incompetence (inhibition zone diameter <4 mm)),^b (incompetence (inhibition zone diameter <4 mm)),^b (incompetence (inhibition zone diameter <4 mm)),^b (incompetence (inhibition zone diameter <4 mm)),"IC50 [3, 20]: > 100 µM; inhibition of the growth of Pseudomonas aeruginosa (growth curve, A600) [16]: no direct inhibition effect"
"C=C1CCC2[C@@](C)(CC[C@@H](O)[C@@]2(C)CO)C1CC(C1=CCOC1=O)S(=O)(=O)[O-].[Na+] (some centres unmarked) [Lianbizhi, andrographolide sodium bisulfite]",^b (incompetence (inhibition zone diameter <4 mm)),^b (incompetence (inhibition zone diameter <4 mm)),^b (incompetence (inhibition zone diameter <4 mm)),^b (incompetence (inhibition zone diameter <4 mm)),^b (incompetence (inhibition zone diameter <4 mm)),^b (incompetence (inhibition zone diameter <4 mm)),^b (incompetence (inhibition zone diameter <4 mm)),"IC50 ([3]; Mus musculus, L1210, 48 h): > 100 µM; inhibition of the growth of Pseudomonas aeruginosa (growth curve, A600) [16]: no direct inhibition effect"
Nysfungin,,,10.00 ± 1.00 mm,,,,,
Gentamicin,,,,20.1 ± 1.00 mm,21.0 ± 1.00 mm,,,
"O=C(O)CCCCC1CCSS1 (stereo not drawn) [lipoic acid, Alpha-lipoic acid]",,,,,,,,increase of glutathione level [17]: 30%-70%; inhibition of NF-kappaB activity induced by TNF-α [18]: 81%
COc1ccc(Cl)cc1C(=O)NCCc1ccc(S(=O)(=O)NC(=O)NC2CCCCC2)cc1 [Glibenclamide],,,,,,,,Blood glucose [19]: 26.9 ± 1.56 mmol/L; Body weight [19]: 201 ± 3.61 g; Total cholesterol [19]: 2.57 ± 1.09 mmol/L; Total triglyceride [19]: 7.84 ± 2.21 mmol/L
"COc1cccc2c1C(=O)c1c(O)c3c(c(O)c1C2=O)C[C@@](O)(C(=O)CO)C[C@@H]3O[C@H]1C[C@H](N)[C@H](O)[C@H](C)O1 [Dox, doxorubicin hydrochloride]",,,,,,,,effect on cell cycle of L1210 cells ([4]; concentration not given): arrested L1210 cells at G2 phase
